US20220064689A1, “AMPHOTERIC GLYCOLIPID BIOSURFACTANT AND ITS PREPARATION METHOD” (Mikros Biochem, priority 2020, published 2022)
Values joined by “and” are separate entries in the source; they are usually repeats but may differ in a detail not shown here. Equal values may be shown once.

Legend:
[1] = test system: Candida albicans (ATCC 10231); assay: Antibacterial analysis per national standard WS/T 650-2019, viable count over 28 days; type: cell-based; settings: 4.0% (aqueous solution of surfactant, or 4.0% sodium benzoate comparative)
Method: (§1) Using the protocol set out in the national standard test WS/T 650-2019 “Evaluation Method of Antibacterial and Antibacterial Effects”, the amphiphilic biosurfactant produced as described above was analysed for antibacterial effects.

[2] = test system: Staphylococcus aureus (ATCC 6538); assay: as above; type: cell-based; settings: 4.0% (aqueous solution of surfactant, or 4.0% sodium benzoate comparative)
Method: as §1

**Q.** What does the source list for `O=C([O-])c1ccccc1.[Na+]` [sodium benzoate]?
**A.** CFU/mL Candida albicans (ATCC 10231) Day 0 ([1]; Day 0): 4.0 × 10^5 CFU/mL; CFU/mL Candida albicans (ATCC 10231) Day 7 ([1]; Day 7): 3.4 × 10^2 CFU/mL; CFU/mL Candida albicans (ATCC 10231) Day 14 ([1]; Day 14): 3.0 × 10^1 CFU/mL; CFU/mL Candida albicans (ATCC 10231) Day 21 ([1]; Day 21): <10 CFU/mL; CFU/mL Candida albicans (ATCC 10231) Day 28 ([1]; Day 28): <10 CFU/mL; CFU/mL Staphylococcus aureus (ATCC 6538) Day 0 ([2]; Day 0): 5.0 × 10^6 CFU/mL and 5.2 × 10^6 CFU/mL; CFU/mL Staphylococcus aureus (ATCC 6538) Day 14 ([2]; Day 14): 8.7 × 10^1 CFU/mL; CFU/mL Staphylococcus aureus (ATCC 6538) Day 21 ([2]; Day 21): <10 CFU/mL
